Key:
[1] = Bulk density according to Ph. Eur.; format: physicochemical
[2] = drug substance as free acid; cited from earlier work
[3] = Particle size by laser diffraction (Malvern MasterSizer 2000, dry dispersing); format: physicochemical; conditions: mean diameter of the volume distribution; mean of three measurements
[4] = base; cited from earlier work

| SMILES | Bulk density [1] [g/mL] | intrinsic pH [2] | Aqueous solubility (Aqueous solubility) [%] | Aqueous solubility (in words) (Aqueous solubility; in water) | D50% (laser diffraction) [3] [μm] | pK [4] |
| --- | --- | --- | --- | --- | --- | --- |
| C[C@H]1[C@H](NC(=O)/C(=N\OC(C)(C)C(=O)O)c2csc(N)n2)C(=O)N1S(=O)(=O)O [Aztreonam] | 0.49 | about 1 | <0.1 | nearly insoluble | – | – |
| COc1ccc(Cc2nccc3cc(OC)c(OC)cc23)cc1OC [papaverine] | 0.41 | – | – | – | 28.5 | 8.07 |

— US20060057073A1, “Wet granulation process” (Pari GmbH, priority 2002, published 2006)
